Laboratory results reported in the supplement of paper PMC10307832.

Experiments:
Experiment in all cases: relative viability (nuclei count vs DMSO), 5 days (fraction); higher = more cells survive
Bleomycin + Palbociclib = compound: CC1=C(N=C(N=C1N)[C@H](CC(=O)N)NC[C@@H](C(=O)N)N)C(=O)N[C@@H]([C@H](C2=CN=CN2)OC3C(C(C(C(O3)CO)O)O)OC4C(C(C(C(O4)CO)O)OC(=O)N)O)C(=O)N[C@H](C)[C@H]([C@H](C)C(=O)N[C@@H]([C@@H](C)O)C(=O)NCCC5=NC(=CS5)C6=NC(=CS6)C(=O)NCCC[S+](C)C)O [Bleomycin] + CC(=O)c1c(C)c2cnc(Nc3ccc(N4CCNCC4)cn3)nc2n(C2CCCC2)c1=O [Palbociclib] (partner 0.5 µM); settings: main component drawn
Method in brief: (§1)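 Relative viability equals treated-well nuclei counts divided by vehicle-well nuclei counts. Counts came from 4× images of lung cancer cell lines grown in 1536-well plates for 5 days after pin-tool dosing on the day after seeding. Dosing used one drug alone or a fixed anchor-drug dose plus five library-drug doses (not always all listed) in √10 steps, and values are medians of duplicate plates.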

Bleomycin + Pemetrexed = compound: CC1=C(N=C(N=C1N)[C@H](CC(=O)N)NC[C@@H](C(=O)N)N)C(=O)N[C@@H]([C@H](C2=CN=CN2)OC3C(C(C(C(O3)CO)O)O)OC4C(C(C(C(O4)CO)O)OC(=O)N)O)C(=O)N[C@H](C)[C@H]([C@H](C)C(=O)N[C@@H]([C@@H](C)O)C(=O)NCCC5=NC(=CS5)C6=NC(=CS6)C(=O)NCCC[S+](C)C)O [Bleomycin] + Nc1nc2[nH]cc(CCc3ccc(C(=O)N[C@@H](CCC(=O)O)C(=O)O)cc3)c2c(=O)[nH]1 [Pemetrexed] (partner 0.2 µM); settings: main component drawn
Method in brief: as §1

Etoposide + Alpelisib = compound: COc1cc([C@@H]2c3cc4c(cc3[C@@H](O[C@@H]3O[C@@H]5CO[C@@H](C)O[C@H]5[C@H](O)[C@H]3O)[C@H]3COC(=O)[C@H]23)OCO4)cc(OC)c1O [Etoposide] + Cc1nc(NC(=O)N2CCC[C@H]2C(N)=O)sc1-c1ccnc(C(C)(C)C(F)(F)F)c1 [Alpelisib] (partner 2 µM)
Method in brief: as §1

Etoposide + Decitabine = compound: COc1cc([C@@H]2c3cc4c(cc3[C@@H](O[C@@H]3O[C@@H]5CO[C@@H](C)O[C@H]5[C@H](O)[C@H]3O)[C@H]3COC(=O)[C@H]23)OCO4)cc(OC)c1O [Etoposide] + Nc1ncn([C@H]2C[C@H](O)[C@@H](CO)O2)c(=O)n1 [Decitabine] (partner 2 µM)
Method in brief: as §1

Work on NCI-H2405 yielded a relative viability (Bleomycin + Palbociclib; first compound 0.01 µM) of 0.424, a relative viability (Bleomycin + Palbociclib; first compound 0.03162 µM) of 0.502 and a relative viability (Bleomycin + Palbociclib; first compound 0.1 µM) of 0.544. The relative viability (Bleomycin + Palbociclib; first compound 0.3162 µM) was 0.346, the relative viability (Bleomycin + Palbociclib; first compound 1 µM) was 0.323 and the relative viability (Bleomycin + Pemetrexed; first compound 0.01 µM) was 0.955. For the same cell line, the relative viability (Bleomycin + Pemetrexed; first compound 0.03162 µM) was 0.974, the relative viability (Bleomycin + Pemetrexed; first compound 0.1 µM) was 0.919 and the relative viability (Bleomycin + Pemetrexed; first compound 0.3162 µM) was 0.595. For the same cell line, the relative viability (Bleomycin + Pemetrexed; first compound 1 µM) was 0.408, the relative viability (Etoposide + Alpelisib; first compound 0.01 µM) was 0.714 and the relative viability (Etoposide + Alpelisib; first compound 0.03162 µM) was 0.801. For the same cell line, the relative viability (Etoposide + Alpelisib; first compound 0.1 µM) was 0.482, the relative viability (Etoposide + Alpelisib; first compound 0.3162 µM) was 0.582 and the relative viability (Etoposide + Alpelisib; first compound 1 µM) was 0.34. The relative viability (Etoposide + Decitabine; first compound 0.01 µM) was 0.732, the relative viability (Etoposide + Decitabine; first compound 0.03162 µM) was 0.808 and the relative viability (Etoposide + Decitabine; first compound 0.1 µM) was 0.563. The relative viability (Etoposide + Decitabine; first compound 0.3162 µM) was 0.519 and the relative viability (Etoposide + Decitabine; first compound 1 µM) was 0.328.
NCI-H1355 was tested, and the relative viability (Bleomycin + Palbociclib; first compound 0.01 µM) was 0.402, the relative viability (Bleomycin + Palbociclib; first compound 0.03162 µM) was 0.382 and the relative viability (Bleomycin + Palbociclib; first compound 0.1 µM) was 0.396. It also gave a relative viability (Bleomycin + Palbociclib; first compound 0.3162 µM) of 0.253, a relative viability (Bleomycin + Palbociclib; first compound 1 µM) of 0.221 and a relative viability (Bleomycin + Pemetrexed; first compound 0.01 µM) of 1. It also gave a relative viability (Bleomycin + Pemetrexed; first compound 0.03162 µM) of 1.04, a relative viability (Bleomycin + Pemetrexed; first compound 0.1 µM) of 1.03 and a relative viability (Bleomycin + Pemetrexed; first compound 0.3162 µM) of 0.648. For the same cell line, the relative viability (Bleomycin + Pemetrexed; first compound 1 µM) was 0.298, the relative viability (Etoposide + Alpelisib; first compound 0.01 µM) was 0.811 and the relative viability (Etoposide + Alpelisib; first compound 0.03162 µM) was 0.969. The relative viability (Etoposide + Alpelisib; first compound 0.1 µM) was 0.343, the relative viability (Etoposide + Alpelisib; first compound 0.3162 µM) was 0.53 and the relative viability (Etoposide + Alpelisib; first compound 1 µM) was 0.304. It also gave a relative viability (Etoposide + Decitabine; first compound 0.01 µM) of 0.362, a relative viability (Etoposide + Decitabine; first compound 0.03162 µM) of 0.384 and a relative viability (Etoposide + Decitabine; first compound 0.1 µM) of 0.363. For the same cell line, the relative viability (Etoposide + Decitabine; first compound 0.3162 µM) was 0.279 and the relative viability (Etoposide + Decitabine; first compound 1 µM) was 0.287.
NCI-H358 was tested, and the relative viability (Bleomycin + Palbociclib; first compound 0.01 µM) was 0.142, the relative viability (Bleomycin + Palbociclib; first compound 0.03162 µM) was 0.178 and the relative viability (Bleomycin + Palbociclib; first compound 0.1 µM) was 0.115. The relative viability (Bleomycin + Palbociclib; first compound 0.3162 µM) was 0.133, the relative viability (Bleomycin + Palbociclib; first compound 1 µM) was 0.111 and the relative viability (Bleomycin + Pemetrexed; first compound 0.01 µM) was 0.164. It also gave a relative viability (Bleomycin + Pemetrexed; first compound 0.03162 µM) of 0.197, a relative viability (Bleomycin + Pemetrexed; first compound 0.1 µM) of 0.168 and a relative viability (Bleomycin + Pemetrexed; first compound 0.3162 µM) of 0.183. It also gave a relative viability (Bleomycin + Pemetrexed; first compound 1 µM) of 0.175, a relative viability (Etoposide + Alpelisib; first compound 0.01 µM) of 0.873 and a relative viability (Etoposide + Alpelisib; first compound 0.03162 µM) of 0.809. It also gave a relative viability (Etoposide + Alpelisib; first compound 0.1 µM) of 0.646, a relative viability (Etoposide + Alpelisib; first compound 0.3162 µM) of 0.246 and a relative viability (Etoposide + Alpelisib; first compound 1 µM) of 0.159. It also gave a relative viability (Etoposide + Decitabine; first compound 0.01 µM) of 0.229, a relative viability (Etoposide + Decitabine; first compound 0.03162 µM) of 0.212 and a relative viability (Etoposide + Decitabine; first compound 0.1 µM) of 0.155. For the same cell line, the relative viability (Etoposide + Decitabine; first compound 0.3162 µM) was 0.136 and the relative viability (Etoposide + Decitabine; first compound 1 µM) was 0.103.
RERF-LC-KJ showed a relative viability (Bleomycin + Palbociclib; first compound 0.01 µM) of 0.678, a relative viability (Bleomycin + Palbociclib; first compound 0.03162 µM) of 0.537 and a relative viability (Bleomycin + Palbociclib; first compound 0.1 µM) of 0.444. For the same cell line, the relative viability (Bleomycin + Palbociclib; first compound 0.3162 µM) was 0.185, the relative viability (Bleomycin + Palbociclib; first compound 1 µM) was 0.18 and the relative viability (Bleomycin + Pemetrexed; first compound 0.01 µM) was 0.416. The relative viability (Bleomycin + Pemetrexed; first compound 0.03162 µM) was 0.504, the relative viability (Bleomycin + Pemetrexed; first compound 0.1 µM) was 0.391 and the relative viability (Bleomycin + Pemetrexed; first compound 0.3162 µM) was 0.261. The relative viability (Bleomycin + Pemetrexed; first compound 1 µM) was 0.142, the relative viability (Etoposide + Alpelisib; first compound 0.01 µM) was 0.73 and the relative viability (Etoposide + Alpelisib; first compound 0.03162 µM) was 0.924. The relative viability (Etoposide + Alpelisib; first compound 0.1 µM) was 0.513, the relative viability (Etoposide + Alpelisib; first compound 0.3162 µM) was 0.852 and the relative viability (Etoposide + Alpelisib; first compound 1 µM) was 0.622. It also gave a relative viability (Etoposide + Decitabine; first compound 0.01 µM) of 0.643, a relative viability (Etoposide + Decitabine; first compound 0.03162 µM) of 0.638 and a relative viability (Etoposide + Decitabine; first compound 0.1 µM) of 0.54. It also gave a relative viability (Etoposide + Decitabine; first compound 0.3162 µM) of 0.579 and a relative viability (Etoposide + Decitabine; first compound 1 µM) of 0.335.
NCI-H23 showed a relative viability (Bleomycin + Palbociclib; first compound 0.01 µM) of 0.311, a relative viability (Bleomycin + Palbociclib; first compound 0.03162 µM) of 0.251 and a relative viability (Bleomycin + Palbociclib; first compound 0.1 µM) of 0.25. For the same cell line, the relative viability (Bleomycin + Palbociclib; first compound 0.3162 µM) was 0.15, the relative viability (Bleomycin + Palbociclib; first compound 1 µM) was 0.152 and the relative viability (Bleomycin + Pemetrexed; first compound 0.01 µM) was 0.419. It also gave a relative viability (Bleomycin + Pemetrexed; first compound 0.03162 µM) of 0.342, a relative viability (Bleomycin + Pemetrexed; first compound 0.1 µM) of 0.285 and a relative viability (Bleomycin + Pemetrexed; first compound 0.3162 µM) of 0.187. The relative viability (Bleomycin + Pemetrexed; first compound 1 µM) was 0.171, the relative viability (Etoposide + Alpelisib; first compound 0.01 µM) was 0.578 and the relative viability (Etoposide + Alpelisib; first compound 0.03162 µM) was 0.654. For the same cell line, the relative viability (Etoposide + Alpelisib; first compound 0.1 µM) was 0.358, the relative viability (Etoposide + Alpelisib; first compound 0.3162 µM) was 0.364 and the relative viability (Etoposide + Alpelisib; first compound 1 µM) was 0.236. It also gave a relative viability (Etoposide + Decitabine; first compound 0.01 µM) of 0.333, a relative viability (Etoposide + Decitabine; first compound 0.03162 µM) of 0.317 and a relative viability (Etoposide + Decitabine; first compound 0.1 µM) of 0.291. It also gave a relative viability (Etoposide + Decitabine; first compound 0.3162 µM) of 0.235 and a relative viability (Etoposide + Decitabine; first compound 1 µM) of 0.242.
Work on HOP-62 yielded a relative viability (Bleomycin + Palbociclib; first compound 0.01 µM) of 0.249, a relative viability (Bleomycin + Palbociclib; first compound 0.03162 µM) of 0.259 and a relative viability (Bleomycin + Palbociclib; first compound 0.1 µM) of 0.285. The relative viability (Bleomycin + Palbociclib; first compound 0.3162 µM) was 0.167, the relative viability (Bleomycin + Palbociclib; first compound 1 µM) was 0.125 and the relative viability (Bleomycin + Pemetrexed; first compound 0.01 µM) was 0.277. For the same cell line, the relative viability (Bleomycin + Pemetrexed; first compound 0.03162 µM) was 0.361, the relative viability (Bleomycin + Pemetrexed; first compound 0.1 µM) was 0.303 and the relative viability (Bleomycin + Pemetrexed; first compound 0.3162 µM) was 0.141. The relative viability (Bleomycin + Pemetrexed; first compound 1 µM) was 0.128, the relative viability (Etoposide + Alpelisib; first compound 0.01 µM) was 0.995 and the relative viability (Etoposide + Alpelisib; first compound 0.03162 µM) was 1.25. The relative viability (Etoposide + Alpelisib; first compound 0.1 µM) was 0.518, the relative viability (Etoposide + Alpelisib; first compound 0.3162 µM) was 0.663 and the relative viability (Etoposide + Alpelisib; first compound 1 µM) was 0.294. For the same cell line, the relative viability (Etoposide + Decitabine; first compound 0.01 µM) was 0.227, the relative viability (Etoposide + Decitabine; first compound 0.03162 µM) was 0.199 and the relative viability (Etoposide + Decitabine; first compound 0.1 µM) was 0.212. For the same cell line, the relative viability (Etoposide + Decitabine; first compound 0.3162 µM) was 0.207 and the relative viability (Etoposide + Decitabine; first compound 1 µM) was 0.179.
HARA showed a relative viability (Bleomycin + Palbociclib; first compound 0.01 µM) of 0.219, a relative viability (Bleomycin + Palbociclib; first compound 0.03162 µM) of 0.291 and a relative viability (Bleomycin + Palbociclib; first compound 0.1 µM) of 0.252. The relative viability (Bleomycin + Palbociclib; first compound 0.3162 µM) was 0.188, the relative viability (Bleomycin + Palbociclib; first compound 1 µM) was 0.197 and the relative viability (Bleomycin + Pemetrexed; first compound 0.01 µM) was 0.219. The relative viability (Bleomycin + Pemetrexed; first compound 0.03162 µM) was 0.228, the relative viability (Bleomycin + Pemetrexed; first compound 0.1 µM) was 0.237 and the relative viability (Bleomycin + Pemetrexed; first compound 0.3162 µM) was 0.169. For the same cell line, the relative viability (Bleomycin + Pemetrexed; first compound 1 µM) was 0.217, the relative viability (Etoposide + Alpelisib; first compound 0.01 µM) was 0.649 and the relative viability (Etoposide + Alpelisib; first compound 0.03162 µM) was 0.854. For the same cell line, the relative viability (Etoposide + Alpelisib; first compound 0.1 µM) was 0.792, the relative viability (Etoposide + Alpelisib; first compound 0.3162 µM) was 0.584 and the relative viability (Etoposide + Alpelisib; first compound 1 µM) was 0.167. For the same cell line, the relative viability (Etoposide + Decitabine; first compound 0.01 µM) was 0.556, the relative viability (Etoposide + Decitabine; first compound 0.03162 µM) was 0.578 and the relative viability (Etoposide + Decitabine; first compound 0.1 µM) was 0.573. For the same cell line, the relative viability (Etoposide + Decitabine; first compound 0.3162 µM) was 0.399 and the relative viability (Etoposide + Decitabine; first compound 1 µM) was 0.301.
